What was measured:
ICR mice = test: Scratching behavior test with PAR2 agonist peptide (SLIGRL-NH2) administration; format: in vivo, mouse; conditions: 40 μL of 6% test compound solution applied to back, solvent 100% ethanol, SLIGRL-NH2 intradermal, scratching counted 10 to 40 minutes after
Description: Test Example 2: Scratching Behavior Test with PAR2 Agonist Peptide Administration
Magnets for measuring scratching behavior(Neuroscience, Inc.) were implanted in both legs of 6- to 7-week-old female ICR mice under 3.5% isoflurane inhalation anesthesia.
Under isoflurane inhalation anesthesia, the upper back was shaved about 2×3 cm with a shaver and 40 μL of a 6% of test compound solution was applied with a micropipette. The animals were then kept in a dedicated cage for 1 hour. […] Then, under isoflurane inhalation anesthesia, 10 μL of a 25 mg/mL solution of PAR2 agonist peptide (SLIGRL-NH2) in distilled water was administered intradermally by using a needle attached to a Hamilton syringe. The animals were returned to the cage and the scratching frequency was measured by the device for 30 minutes from 10 to 40 minutes after the administration.
The inhibitory effect of the test compounds on scratching behavior was calculated as a percentage of the number of scratches in the solvent-applied and PAR2 agonist peptide-treated group, and is shown in Table 4 as a percentage.

NC/Nga mice = test: Scratching behavior test using atopic dermatitis model (SDS and mite antigen ointment sensitization); conditions: 60 μL applied, solvent 100% ethanol, 7 hours after application
PAR2 = target: T1, PAR2 (Homo sapiens, UniProt P55085); test: Intracellular calcium concentration measurement (SLIGKV-NH2-induced calcium change, Fluo-8, FDSS/μCELL); format: cell-based; conditions: HEK293 cells; SLIGKV-NH2 10 μM-induced intracellular calcium change; read-out: IC50
T1 construct: HEK293 cell lines derived from human embryonic kidney cultured in a MEM culture medium; endogenous in cells; host or cells: HEK293
T1 sequence (P55085 26-397): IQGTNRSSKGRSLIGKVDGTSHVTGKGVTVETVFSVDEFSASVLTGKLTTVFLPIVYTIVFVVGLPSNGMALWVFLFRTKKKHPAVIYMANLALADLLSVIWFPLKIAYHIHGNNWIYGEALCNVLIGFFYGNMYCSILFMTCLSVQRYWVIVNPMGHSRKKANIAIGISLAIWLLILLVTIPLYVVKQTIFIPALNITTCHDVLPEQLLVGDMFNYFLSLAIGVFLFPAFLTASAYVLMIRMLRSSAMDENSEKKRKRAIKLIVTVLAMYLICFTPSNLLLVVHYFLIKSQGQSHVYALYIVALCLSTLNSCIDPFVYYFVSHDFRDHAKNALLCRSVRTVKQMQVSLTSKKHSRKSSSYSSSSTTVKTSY

NZW rabbits = test: Rabbit skin cumulative irritation test (erythema and edema scores, 7 days); format: in vivo; parameters: key: sum of erythema (5-point scale) + edema (5-point scale) scores; conditions: 50 μL of 3% solution in 70% ethanol daily for 7 days; for Irritant score Day 7: average total score of erythema and edema on Day 7; for Irritant score Maximum: maximum (total) score of erythema and edema during the test period
Description: Test Example 4: Rabbit Skin Cumulative Irritation Test
18-20 week-old female NZW rabbits shaved on the back with a shaver were fitted with a collar (Natsume Seisakusho Co., Ltd.). A 2.5 cm×2.5 cm frame was placed on the back of the rabbits, and 50 μL of a 3% solution of each compound in 70% ethanol was applied to the place in 2 or 3 rabbits. The next day (approximately 24 hours later), the compound applied on the previous day was wiped off with a cotton pad soaked in lukewarm water, and approximately 30 minutes later, erythema (5-point scale) and edema (5-point scale) were evaluated according to the score criteria shown below.
After the score evaluation, the compound was applied again. This process was conducted for 7 days, and irritancy was evaluated by the average of the total score of erythema and edema on the last day of evaluation (Day 7) and the maximum (total) scores during the test period.
The score evaluation criteria were as follows.

Row | SMILES | scratching-behavior inhibition rate (ICR mice) [%] | Scratching behavior inhibition rate (NC/Nga mice; assessed concentration 6%) [%] | IC50 (PAR2) [nM] | Irritant score Day 7 (NZW rabbits) | Irritant score Maximum (NZW rabbits) | Scratching behavior inhibition rate (NC/Nga mice; assessed concentration 3%) [%]
1 | CC(C)c1cc(CC2CCCC2)nc2cc(C(=O)N3CCCCC3(C)C)nn12 [Example 12] | 51 | 102 | 76 | 0.0 | 0.0 | –
2 | CC(C)c1cc(CC2CCCC2)nc2cc(C(=O)N3CCCCCC3)nn12 [Example 15, azepan-1-yl-[5-(cyclopentylmethyl)-7-propan-2-ylpyrazolo[1,5-a]pyrimidin-2-yl]methanone] | 44 | – | 150 | 0.0 | 0.7 | 52

— US20240376109A1, “PYRAZOLO[1,5-A]PYRIMIDINE COMPOUND FOR THE TREATMENT OF DERMAL DISORDERS” (OTSUKA PHARMACEUTICAL CO., LTD., priority 2021, published 2024)
